Assay results: ChEMBL document CHEMBL1137999, “A novel series of p38 MAP kinase inhibitors for the potential treatment of rheumatoid arthritis” (Bioorg Med Chem Lett, 2004)
≈ marks a conversion by molar mass, not a printed value.

Experiments:
[1] = target: Mitogen-activated protein kinase 14 (Homo sapiens, UniProt Q16539)
Homo sapiens = organism: Homo sapiens; experiment: tissue or blood
cells = details: Homo sapiens
[2] = Area under plasma-time concentration curve when administered at 1 mg/kg dose; format: ADME, organism-based; parameters: dose 1 mg/kg; details: rat
Mus musculus [3] = organism: Mus musculus; experiment: animal or person; format: functional
Mus musculus [4] = organism: Mus musculus; experiment: animal or person; format: functional; remark: listed apart in the source
Mus musculus [5] = organism: Mus musculus; experiment: animal or person; format: functional; remark: listed apart in the source
[6] = Solubility was determined; format: physicochemical
[7] = Protein binding was determined in human; format: ADME
[8] = Oral bioavailability at 3 mg/kg; format: ADME, organism-based; details: rat, in vivo, read-out: Bioavailabiility
[9] = Volume distribution after iv administration of 1 mg/kg; format: ADME, organism-based; parameters: dose 1 mg/kg, route intravenous; details: rat, in vivo, read-out: Distribution
[10] = Log D value at pH 7.4; format: physicochemical; details: buffer

Chain of Mitogen-activated protein kinase 14 (Q16539 whole entry): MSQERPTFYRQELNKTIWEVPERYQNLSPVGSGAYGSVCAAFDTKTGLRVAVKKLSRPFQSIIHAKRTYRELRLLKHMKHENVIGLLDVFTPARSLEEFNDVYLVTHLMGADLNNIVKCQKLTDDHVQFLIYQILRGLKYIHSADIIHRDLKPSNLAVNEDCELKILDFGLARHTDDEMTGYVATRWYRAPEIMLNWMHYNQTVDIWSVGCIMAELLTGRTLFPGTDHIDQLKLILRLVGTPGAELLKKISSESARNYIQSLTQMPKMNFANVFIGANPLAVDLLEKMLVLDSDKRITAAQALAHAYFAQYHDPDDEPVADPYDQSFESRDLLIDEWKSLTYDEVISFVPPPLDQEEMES

| Structure (SMILES) | IC50 [1] | IC50 (Homo sapiens) | IC50 (cells) | AUC [2] | also measured |
| --- | --- | --- | --- | --- | --- |
| Cc1ccc(NC(=O)c2cccc(N3CCOCC3)c2)cc1NC(=O)c1ccc(OCc2cccnc2)cc1 | 90 nM | 14700 nM |  |  |  |
| COc1ccc(C(=O)Nc2cc(NC(=O)c3cccc(N(C)C)c3)ccc2Cl)cc1OC | 220 nM |  | 6400 nM |  |  |
| Cc1ccc(NC(=O)c2cccc(N3CCOCC3)c2)cc1NC(=O)c1ccc(OCc2cscn2)cc1 |  |  |  | < 0.12 µM·h | inhibition in vivo at 30 mg/kg (Mus musculus [3]): 56%; inhibition in vivo at 3 mg/kg (Mus musculus [4]): 28%; inhibition in vivo at 10 mg/kg (Mus musculus [5]): 44% |
| COc1ccc(C(=O)Nc2cccc(NC(=O)c3cccc(N(C)C)c3)c2)cc1OC | > 20000 nM |  |  |  |  |
| Cc1ccc(NC(=O)c2cc(F)cc(N3CCOCC3)c2)cc1NC(=O)c1ccc(OCc2ccncc2)cc1 | 10 nM | 3400 nM |  | < 0.02 µM·h | inhibition in vivo at 30 mg/kg (Mus musculus [3]; dose 30 mg/kg): 40%; inhibition in vivo at 10 mg/kg (Mus musculus [5]; dose 10 mg/kg): 24% |
| COc1ccc(C(=O)Nc2cc(NC(=O)c3cccc(N(C)C)c3)ccc2C)cc1 | 180 nM |  | > 50000 nM |  |  |
| Cc1ccc(NC(=O)c2ccnc(N3CCOCC3)c2)cc1NC(=O)c1ccc(OCc2ccccn2)cc1 | 10 nM | 2800 nM |  |  | solubility [6]: < 1 µM; Binding [7]: 99.89%; bioavailability [8]: 46%; Vd [9]: 1.6 L/kg |
| COCCOc1ccc(C(=O)Nc2cc(NC(=O)c3cccc(N(C)C)c3)ccc2C)cc1 | 270 nM |  | 3400 nM |  |  |
| COc1ccc(C(=O)Nc2cc(NC(=O)c3cccc(N(C)C)c3)ccc2Br)cc1OC | 340 nM |  | 9500 nM |  |  |
| Cc1ccc(NC(=O)c2cc(F)cc(N3CCOCC3)c2)cc1NC(=O)c1ccc(OCc2cscn2)cc1 | 10 nM | 2500 nM |  | 0.71 µM·h | inhibition in vivo at 30 mg/kg (Mus musculus [3]): 81%; inhibition in vivo at 10 mg/kg (Mus musculus [5]): 37% |
| Cc1ccc(NC(=O)c2cc(F)cc(N3CCCC3)c2)cc1NC(=O)c1ccc(OCc2ccccn2)cc1 |  |  |  | 0.07 µM·h | inhibition in vivo at 30 mg/kg (Mus musculus [3]): 7%; inhibition in vivo at 10 mg/kg (Mus musculus [5]): 3% |
| Cc1ccc(NC(=O)c2cccc(N3CCOCC3)c2)cc1NC(=O)c1ccc(OCc2ccccn2)cc1 |  |  |  | 1.38 µM·h | inhibition in vivo at 30 mg/kg (Mus musculus [3]; dose 30 mg/kg): 59% |
| CCOCCOc1ccc(C(=O)Nc2cc(NC(=O)c3cccc(N(C)C)c3)ccc2C)cc1 | 310 nM |  | 9500 nM |  |  |
| CCOc1ccc(C(=O)Nc2cc(NC(=O)c3cccc(N(C)C)c3)ccc2C)cc1 | 60 nM |  | 7000 nM |  |  |
| Cc1ccc(NC(=O)c2cccc(N(C)C)c2)cc1NC(=O)c1ccc(O)cc1 | 180 nM |  | > 50000 nM |  | solubility [6]: 10 µM (≈ 3.89 µg/mL); Binding [7]: 99.7%; logD [10]: 2.7 |
| Cc1ccc(NC(=O)c2cc(F)cc(N3CCOCC3)c2)cc1NC(=O)c1ccc(OCc2ccccn2)cc1 | 60 nM | 11200 nM |  | 0.13 µM·h | inhibition in vivo at 30 mg/kg (Mus musculus [3]; dose 30 mg/kg): 43% |
| COc1cc(C(=O)Nc2cc(NC(=O)c3cccc(N(C)C)c3)ccc2C)cc(OC)c1OC | 230 nM |  | 3900 nM |  |  |
| Cc1ccc(NC(=O)c2cccc(N3CCOCC3)c2)cc1NC(=O)c1ccc(OCc2ccncc2)cc1 | 20 nM | 3300 nM |  | 0.13 µM·h | inhibition in vivo at 30 mg/kg (Mus musculus [3]; dose 30 mg/kg): 75%; inhibition in vivo at 3 mg/kg (Mus musculus [4]; dose 3 mg/kg): 14%; inhibition in vivo at 10 mg/kg (Mus musculus [5]; dose 10 mg/kg): 43% |
| COc1ccc(C(=O)Nc2ccc(C)c(NC(=O)c3cccc(N(C)C)c3)c2)cc1OC | > 20000 nM |  |  |  |  |
| COc1ccc(C(=O)N(C)c2cc(NC(=O)c3cccc(N(C)C)c3)ccc2C)cc1OC | > 20000 nM |  |  |  |  |
| COc1ccc(C(=O)Nc2cc(NC(=O)c3cccc(N(C)C)c3)ccc2C)c(OC)c1 | 100 nM |  | > 50000 nM |  |  |
| CCOc1ccc(C(=O)Nc2cc(NC(=O)c3cccc(N(C)C)c3)ccc2C)cc1OCC | 50 nM |  | 4500 nM |  |  |
| COc1ccc(C(=O)Nc2cc(NC(=O)c3cccc(N(C)C)c3)ccc2F)cc1OC | 1900 nM |  | 22000 nM |  |  |
| Cc1nc(COc2ccc(C(=O)Nc3cc(NC(=O)c4cccc(N5CCOCC5)c4)ccc3C)cc2)cs1 | 20 nM | 14600 nM |  | 2.03 µM·h | inhibition in vivo at 30 mg/kg (Mus musculus [3]; dose 30 mg/kg): 71%; inhibition in vivo at 3 mg/kg (Mus musculus [4]; dose 3 mg/kg): 33%; inhibition in vivo at 10 mg/kg (Mus musculus [5]; dose 10 mg/kg): 44% |
| Cc1ccc(NC(=O)c2cc(N3CCOCC3)cc(C(F)(F)F)c2)cc1NC(=O)c1ccc(OCc2ccccn2)cc1 | 20 nM | 10200 nM |  | 0.04 µM·h | inhibition in vivo at 30 mg/kg (Mus musculus [3]; dose 30 mg/kg): 55%; inhibition in vivo at 10 mg/kg (Mus musculus [5]; dose 10 mg/kg): 4% |
| Cc1ccc(NC(=O)c2cccc(N3CCOCC3)c2)cc1NC(=O)c1ccc(OCc2ccccc2)cc1 | 30 nM | 40000 nM |  |  |  |
| COc1ccc(C(=O)Nc2cc(NC(=O)c3cccc(N(C)C)c3)ccc2C)cc1OC | 180 nM |  | 6400 nM |  |  |
| Cc1nc(COc2ccc(C(=O)Nc3cc(NC(=O)c4cc(F)cc(N5CCOCC5)c4)ccc3C)cc2)cs1 | 90 nM | 2800 nM |  | 0.73 µM·h | inhibition in vivo at 30 mg/kg (Mus musculus [3]; dose 30 mg/kg): 35%; inhibition in vivo at 3 mg/kg (Mus musculus [4]; dose 3 mg/kg): 0%; inhibition in vivo at 10 mg/kg (Mus musculus [5]; dose 10 mg/kg): 27% |
| C[S+]([O-])c1ccc(-c2nc(-c3ccc(F)cc3)c(-c3ccncc3)[nH]2)cc1 (centres undefined) [SB-203580] |  |  |  |  | inhibition in vivo at 30 mg/kg (Mus musculus [3]): 50%; inhibition in vivo at 3 mg/kg (Mus musculus [4]): 0%; inhibition in vivo at 10 mg/kg (Mus musculus [5]): 47% |
